Measurements reported in patent US10738024B2, “Compounds for treatment of angiogenesis-mediated diseases” (Indiana University Research and Technology Corporation, priority 2013, dated 2020).

Assays:
[1] = system: Y-79 retinoblastoma cells; assay: ALAMARBLUE proliferation assay in Y-79 retinoblastoma cells; type: cell-based; details: 50% growth inhibitory concentration, 48 hours
Procedure: (§1) For proliferation assays, cells (2500 per well) were seeded in a 96-well clear bottom black polystyrene plate in a total volume of 100 μL. HUVECs and HRECs were grown in EGM-2 and CSC+ media respectively, while 92-1 and Y79 cells were maintained in RPMI+10% FBS, penicillin/streptomycin and RB medium (IMDM+10% FBS+penicillin/streptomycin+10 μg/mL insulin+55 μM β-mercaptoethanol) respectively. After 24 hours of incubation of the plate at 37° C., the compounds were dissolved in DMSO and added in the concentration range of 500 μM to 0.5 nM. The plate was then incubated at 37° C. and 5% CO2 conditions for 48 hours before adding 11.1 μL of alamar blue reagent for each well. Four hours after the addition of ALAMARBLUE® reagent, fluorescence readings with excitation and emission wavelengths of 560 nm and 590 nm respectively were taken and the data was analyzed in GraphPad Prism software. The dose response curves were generated and the GI50 values were calculated using the equation: Y=100/(1+10^(X−Log GI50)) (Table 1).

[2] = system: 92-1 uveal melanoma cells; assay: ALAMARBLUE proliferation assay in 92-1 uveal melanoma cells; type: cell-based; details: 50% growth inhibitory concentration, 48 hours, alamarBlue
Procedure: as §1

HRECs = assay: ALAMARBLUE proliferation assay in HRECs; type: cell-based, human; details: for GI50: Homo sapiens, HREC, 50% growth inhibitory concentration, 48 hours, alamarBlue, read-out: GI50 HREC
Procedure: (§2) Particularly, in a 96-well clear bottom black plate, cells (2,500 cells per well) were seeded in a total volume of 100 μL EGM-2. After 24 hours of incubation of the plate at 37° C. and 5% CO2, a DMSO solution of synthetic cremastranone (1) or SH-11052 (2) was added in the concentration range of 0.5 nM to 500 μM (final DMSO concentration=1%). The plate was then further incubated for 48 hours before adding 11.1 μL of ALAMARBLUE® reagent to each well. Four hours after the addition of ALAMARBLUE®, fluorescence readings with excitation and emission wavelengths of 560 nm and 590 nm, respectively, were taken and the data were analyzed in GraphPad Prism software (v. 6.0). Dose response curves were generated and the GI50 values were calculated using the following equation: Y=100/(1+10^(X−Log GI50)).
as §1

HUVECs = assay: ALAMARBLUE proliferation assay in HUVECs; type: cell-based, human; details: for GI50: Homo sapiens, HUVEC, 48 h, 50% growth inhibitory concentration, alamarBlue
Procedure: as §2, §1

Row | GI50 [1] [µM] | GI50 [2] [µM] | SMILES | GI50 (HRECs) [µM] | in vitro anti-proliferative activity in HRECs (HRECs; result in words, FIGS. 6B, 6D, 14) | GI50 (HUVECs) [µM] | in vitro anti-proliferative activity in HUVECs (HUVECs; result in words, FIGS. 6A, 6C)
1 | 47 | 9.8 | COc1ccc(CC2COc3cc(O)c(OC)c(O)c3C2=O)cc1O (racemic) [Compound 1, 5,7-dihydroxy-3-(3-hydroxy-4-methoxybenzyl)-6-methoxychroman-4-one] | 0.217 | demonstrated in vitro anti-proliferative activity | 0.377 | demonstrated in vitro anti-proliferative activity
2 | > 100 | > 100 | COc1ccc(/C=C/C(=O)c2c(O)cc(OC)c(OC)c2OC)cc1OCc1ccccc1 [Compound 3a, (E)-3-(3′-benzyloxy-4′-methoxyphenyl)-1-(6-hydroxy-2,3,4-trimethoxyphenyl) prop-2-en-1-one] | > 100 |  | 94 | 
3 | > 100 | > 100 | COc1cc(O)c(C(=O)/C=C/c2ccccc2)c(OC)c1OC [Compound 3b] | > 100 |  | > 100 | 
4 | 68 | > 100 | COc1ccc(CCC(=O)c2c(O)cc(OC)c(OC)c2OC)cc1O [Compound 4a, 1-(6-hydroxy-2,3,4-trimethoxyphenyl)-3-(3′-hydroxy-4′-methoxyphenyl) propan-1-one] | 68 |  | 102 | 
5 | > 100 | > 100 | COc1ccc(CCC(=O)c2c(O)cc(OC)c(OC)c2OC)cc1OC [Compound 4c] | 123 |  | 74 | 
6 | > 100 | > 100 | COc1ccc(CC2(CO)COc3cc(OC)c(OC)c(OC)c3C2=O)cc1O (stereo not drawn) [Compound 5, 3-(3′-hydroxy-4′-methoxybenzyl)-3-(hydroxymethyl)-5,6,7-trimethoxychroman-4-one] | > 100 |  | > 100 | 
7 | > 100 | > 100 | COc1ccc(CC2COc3cc(OC)c(OC)c(OC)c3C2=O)cc1O (stereo not drawn) [Compound 6a, 3-(3′-hydroxy-4′-methoxybenzyl)-5,6,7-trimethoxychroman-4-one] | > 100 |  | > 100 | 
8 | > 100 | > 100 | COc1cc2c(c(OC)c1OC)C(=O)C(Cc1ccccc1)CO2 (stereo not drawn) [Compound 6b, 3-benzyl-5,6,7-trimethoxychroman-4-one] | > 100 |  | > 100 | 
9 | 40 | > 250 | COC(=O)c1cc(CC2COc3cc(OC)c(OC)c(OC)c3C2=O)ccc1OC (stereo not drawn) [Compound 6d] | 13 |  | 27 | 
10 | 98 | > 250 | COc1cc2c(c(OC)c1OC)C(=O)C(Cc1ccc(O)c(O)c1)CO2 (stereo not drawn) [Compound 6e] | > 250 |  | 77 | 
11 | > 250 | > 250 | COc1ccc(CC2COc3cc(OC)c(OC)c(OC)c3C2=O)cc1C(=O)O (stereo not drawn) [Compound 6f] | 131 |  | 92 | 
12 | 8 | 17 | C=C(Cc1ccc(OC)c(O)c1)C(=O)c1c(O)cc(OC)c(OC)c1OC [Compound 7, 1-(6-hydroxy-2,3,4-trimethoxyphenyl)-2-(3′-hydroxy-4′-methoxybenzyl)prop-2-en-1-one] | 10 |  | 1.4 | 
13 | > 100 | > 100 | COc1ccc(CC2COc3cc(OC)c(OC)c(O)c3C2=O)cc1O (stereo not drawn) [Compound 8a] | > 100 |  | 44 | 
14 | > 100 | > 100 | COc1cc2c(c(O)c1OC)C(=O)C(Cc1ccccc1)CO2 (stereo not drawn) [Compound 8b, 3-benzyl-5-hydroxy-6,7-dimethoxychroman-4-one] | > 100 |  | 40 | 
15 | > 50 | 51 | COc1ccc(CC2COc3cc(OC)c(O)c(O)c3C2=O)cc1OC(=O)c1ccccc1 (stereo not drawn) [Compound 8c] | > 100 |  | > 100 | 
16 | > 500 | > 500 | COc1ccc(CC2COc3cc(O)c(O)c(O)c3C2=O)cc1O (stereo not drawn) [Compound 8d, 5,6,7-trihydroxy-3-(3-hydroxy-4-methoxybenzyl)chroman-4-one] | 135 |  | 124 | 
17 | > 100 | > 100 | COc1ccc(Cc2coc3cc(OC)c(OC)c(OC)c3c2=O)cc1O [Compound 9a, 3-(3′-hydroxy-4′-methoxybenzyl)-5,6,7-trimethoxy-4H-chromen-4-one] | > 100 |  | > 100 | 
18 | > 100 | > 100 | COc1c(O)cc2occ(Cc3ccccc3)c(=O)c2c1O [Compound 9b, 3-benzyl-5,7-dihydroxy-6-methoxy-4H-chromen-4-one] | > 100 |  | > 100 | 

Row | GI50 [1] [µM] | GI50 [2] [µM] | SMILES | GI50 (HRECs) [µM] | in vitro anti-proliferative activity in HRECs (HRECs; result in words, FIGS. 6B, 6D, 14) | GI50 (HUVECs) [µM] | in vitro anti-proliferative activity in HUVECs (HUVECs; result in words, FIGS. 6A, 6C)
19 | > 500 | > 500 | COc1cc2c(c(OC)c1OC)C(=O)CCO2 [Compound 10a, 5,6,7-trimethoxychromanone] | > 100 |  | > 100 | 
20 | 44 | 0.22 | COc1ccc(/C=C2\COc3cc(OC)c(OC)c(OC)c3C2=O)cc1O [Compound 11a, (E)-3-(3′-hydroxy-4′-methoxybenzylidene)-5,6,7-trimethoxychroman-4-one] | 46 |  | 8 | 
21 | 15 |  | COc1ccc(/C=C2\COc3cc(OC)c(OC)c(OC)c3C2=O)cc1OCc1ccccc1 [Compound 11b, (E)-3-(3′-benzyloxy-4′-methoxybenzylidene)-5,6,7-trimethoxychroman-4-one] | 6 |  | 4 | 
22 | 3 | 3.2 | C=CCOc1cc(/C=C2\COc3cc(OC)c(OC)c(OC)c3C2=O)ccc1OC [Compound 11c, (E)-3-(3′-allyloxy-4′-methoxybenzylidene)-5,6,7-trimethoxychroman-4-one] | 4 |  | 11 | 
23 | 39 | 23 | COc1cc(/C=C2\COc3cc(OC)c(OC)c(OC)c3C2=O)ccc1OCc1ccccc1 [Compound 11d] | 53 |  | 114 | 
24 | 23 | 55 | COc1cc(/C=C2\COc3cc(OC)c(OC)c(OC)c3C2=O)ccc1O [Compound 11e] | 4 |  | 6 | 
25 | 25 | 25 | COc1cccc(/C=C2\COc3cc(OC)c(OC)c(OC)c3C2=O)n1 [Compound 11f] | 17 |  | 16 | 
26 | 32 | 310 | C#CCOc1cc(/C=C2\COc3cc(OC)c(OC)c(OC)c3C2=O)ccc1OC [Compound 11g] | 39 |  | 21 | 
27 | 44 | 13 | COc1ccc(/C=C2\COc3cc(OC)c(OC)c(OC)c3C2=O)cc1[N+](=O)[O-] [Compound 11h] | 4 |  | 11 | 
28 | 465 | 152 | COc1cc2c(c(OC)c1OC)C(=O)/C(=C/c1ccc(OCc3ccccc3)cc1)CO2 [Compound 11i] | > 500 |  | 284 | 
29 | 9 | 23 | COc1cc2c(c(OC)c1OC)C(=O)/C(=C/c1ccc([N+](=O)[O-])cc1)CO2 [Compound 11j] | 14 |  | 6 | 
30 | 3.2 | 6 | COc1ccc(/C=C2\COc3cc(OC)c(OC)c(OC)c3C2=O)cc1OCCN1CCCC1 [Compound 11k, (E)-5,6,7-trimethoxy-3-(4-methoxy-3-(2-(pyrrolidin-1-yl)ethoxy)benzylidene)chroman-4-one] | 0.185 |  | 3.5 | 
31 | 21 | > 500 | COc1ccc(/C=C2\COc3cc(OC)c(OC)c(OC)c3C2=O)cc1OCC(=O)OC(C)(C)C [Compound 11l] | > 500 |  | 27 | 
32 | > 500 | > 500 | COc1ccc(/C=C2\COc3cc(OC)c(OC)c(OC)c3C2=O)cc1OCC(=O)O [Compound 11m] | > 500 |  | > 500 | 
33 | 13 | 13.7 | COc1cc2c(c(OC)c1OC)C(=O)/C(=C/c1ccc(O)c(O)c1)CO2 [Compound 11n] | 6.4 |  | 4.1 | 
34 | 2.3 | 8.2 | COC(=O)c1cc(/C=C2\COc3cc(OC)c(OC)c(OC)c3C2=O)ccc1O [Compound 11o] | 4.7 |  | 2 | 
35 | 22 | 30 | COc1cc2c(c(OC)c1OC)C(=O)/C(=C/c1ccc(O)c(F)c1)CO2 [Compound 11p] | 19 |  | 9 | 
